Assay results: patent US8642623B2, “Vanilloid receptor ligand compounds, pharmaceutical compositions containing them, a method of producing them and the use thereof to treat pain and various other conditions” (Gruenenthal GmbH, priority 2007, dated 2014)

What was measured:
Assay type in all cases: cell-based
[1] = molecular target: vanilloid receptor 1 (VR1/TRPV1 receptor) (Homo sapiens, UniProt Q8NER1); experiment: Human VR1/TRPV1 receptor inhibition after pH stimulus
[2] = molecular target: T1, vanilloid receptor 1 (VR1/TRPV1) of the rat species (Rattus norvegicus, UniProt O35433); experiment: FLIPR Ca2+ influx assay on rat dorsal root ganglia cells, capsaicin stimulus (Pharmacological method I); settings: capsaicin 100 nM stimulus, Ki from IC50 by Cheng-Prusoff
T1 construct: The spinal column is removed from decapitated rats; from tissue; host or cells: primary cells from rat dorsal root ganglia (DRG)
Procedure: (§1) The agonistic or antagonistic action of the substances to be investigated on the vanilloid receptor 1 (VR1/TRPV1) of the rat species may be determined with the following assay. According to this assay, the influx of Ca^2+ through the receptor channel is quantified with the assistance of a Ca^2+-sensitive dye (type Fluo-4, Molecular Probes Europe BV, Leiden, Netherlands) in a Fluorescent Imaging Plate Reader (FLIPR, Molecular Devices, Sunnyvale, USA).
Complete medium: 50 mL HAMS F12 Nutrient Mixture (Gibco Invitrogen GmbH, Karlsruhe, Germany) with 10 vol. % FCS (foetal calf serum, Gibco Invitrogen GmbH, Karlsruhe, Germany, heat-inactivated);
Cell culture plate: poly-D-lysine-coated, black 96-hole plates with clear base (96 well black/clear plate, BD Biosciences, Heidelberg, Germany) are additionally coated with laminin (Gibco Invitrogen GmbH, Karlsruhe, Germany), by diluting laminin to a concentration of 100 μg/mL with PBS (Ca—Mg-free PBS, Gibco Invitrogen GmbH, Karlsruhe, Germany). Aliquots with a concentration of 100 μg/mL of laminin are taken and stored at −20° C. The aliquots are diluted with PBS in the ratio of 1:10 to 10 μg/mL of laminin and 50 μL of the solution is pipetted into each well of the cell culture plate. The cell culture plates are incubated for at least two hours at 37° C., the supernatant solution is aspirated and the wells are each washed twice with PBS. The coated cell culture plates are stored with supernatant PBS and this is only removed directly prior to introduction of the cells.
The spinal column is removed from decapitated rats and this is placed directly in cold HBSS buffer (Hank's buffered saline solution, Gibco Invitrogen GmbH, Karlsruhe, Germany), i.e. located in an ice bath, combined with 1 vol. % (percent by volume) of an AA solution (antibiotic/antimycotic solution, PAA, Pasching, Austria). The spinal column is severed lengthwise and removed from the spinal canal together with fasciae. The dorsal root ganglia (DRGs) are then removed and in turn stored in cold HBSS buffer combined with 1 vol. % of an AA solution. The DRGs, from which blood residues and spinal nerves have been completely removed, are in each case transferred into 500 μL cold collagenase type 2 (PAA, Pasching, Austria) and incubated for 35 minutes at 37° C. After the addition of 2.5 vol. % trypsin (PAA, Pasching, Austria) incubation at 37° C. is continued for a further 10 minutes. After complete incubation, the enzyme solution is carefully pipetted off and the remaining DRGs are combined in each case with 500 μL of complete medium.
The DRGs are in each case repeatedly suspended, drawn through cannulas no. 1, no. 12 and no. 16 by means of a syringe and transferred into 50 mL Falcon microtubes, these being filled to 15 mL with complete medium. The content of each Falcon microtube is in each case filtered through a 70 μm Falcon filter insert and centrifuged for 10 minutes at 1200 revolutions and room temperature. The resultant pellet is in each case redissolved in 250 μL of complete medium and the cell count is determined.
The number of cells in the suspension is adjusted to 3×10^5 per mL and a 150 μL portion of this suspension is in each case placed in a well of the cell culture plates which have been coated as described above. The plates are left to stand in the incubator for two to three days at 37° C., 5 vol. % CO2 and 95% relative atmospheric humidity.
The cells are then loaded with 2 μM Fluo-4 and 0.01 vol. % Pluronic F127 (Molecular Probes Europe BV, Leiden, Netherlands) in HBSS buffer (Hank's buffered saline solution, Gibco Invitrogen GmbH, Karlsruhe, Germany) for 30 min at 37° C., washed 3×with HBSS buffer and, after a further 15 minutes' incubation at room temperature, used for Ca^2+ measurement in the FLIPR assay. Ca^2+-dependent fluorescence is here measured before and after the addition of substances (λex=488 nm, λem=540 nm). […]

[3] = molecular target: T2, vanilloid receptor (VR1) (Homo sapiens, UniProt Q8NER1); experiment: FLIPR Ca2+ influx assay with CHO K1 cells transfected with the human VR1 gene, capsaicin stimulus (Pharmacological method II); settings: capsaicin 100 nM stimulus, Ki from IC50 by Cheng-Prusoff
T2 construct: expressed in transfected cells; host or cells: CHO K1 cells (ECACC), stably transfected
Procedure: In addition, compounds according to the invention of the general formulae I, Ia, Ib, I′, I″, I′″ may be preferred which, in a FLIPR assay with CHO K1 cells which have been transfected with the human gene VR1, in a concentration of less than 2000 nM, preferably of less than 1000 nM, particularly preferably of less then 300 nM, very particularly preferably of less than 100 nM, still more preferably of less than 75 nM, further preferably of less than 50 nM, most preferably of less than 10 nM, bring about 50% displacement of capsaicin which is present in a concentration of 100 nM.
In this FLIPR assay, the influx of Ca^2+ is quantified with the assistance of a Ca^2+-sensitive dye (type Fluo-4, Molecular Probes Europe BV, Leiden, Netherlands) in a Fluorescent Imaging Plate Reader (FLIPR, Molecular Devices, Sunnyvale, USA) as described below.
as §1, with “(VR1)” for “1 (VR1/TRPV1) of the rat species”, “may also” for “may”, “the” for “the receptor”
Chinese hamster ovary cells (CHO K1 cells, European Collection of Cell Cultures (ECACC), Great Britain) are stably transfected with the VR1 gene. For functional investigations, these cells are plated out onto poly-D-lysine-coated, black 96-hole plates with a clear base (BD Biosciences, Heidelberg, Germany) at a density of 25,000 cells/hole. The cells are incubated overnight at 37° C. and 5% CO2 in a culture medium (Ham's Nutrient Mixture F12, 10 vol. % FCS (foetal calf serum), 18 μg/mL L-proline). On the following day, the cells are incubated with Fluo-4 (Fluo-4 2 μM, Pluronic F127 0.01 vol. %, Molecular Probes in HBSS (Hank's buffered saline solution), Gibco Invitrogen GmbH, Karlsruhe, Germany) for 30 minutes at 37° C. The plates are then washed 3 times with HBSS buffer and, after a further 15 minutes' incubation at room temperature, used for Ca^2+ measurement in the FLIPR. Ca^2+-dependent fluorescence is here measured before and after the addition of the substances to be investigated (wavelength λex=488 nm, λem=540 nm). Quantification proceeds by measuring the highest fluorescence intensity (FC, fluorescence counts) over time.
The FLIPR protocol consists of 2 additions of substance. The substances to be tested (10 μM) are firstly pipetted onto the cells and Ca^2+ influx is compared with the control (capsaicin 10 μM) (% activation relative to the Ca^2+ signal after addition of 10 μM of capsaicin). After 5 minutes' incubation, 100 nM of capsaicin are added and the influx of Ca^2+ is likewise determined.
The percentage inhibition in comparison with the maximum achievable inhibition with 10 μM capsaicin is calculated.
On the basis of the percentage displacement by different concentrations of the compounds to be tested of the general formula I, IC50 inhibition concentrations which bring about 50% displacement of capsaicin were calculated. Ki values for the test substances were obtained by conversion using the Cheng-Prusoff equation (Cheng, Prusoff; Biochem. Pharmacol. 22, 3099-3108, 1973).

Sequence of vanilloid receptor 1 (VR1/TRPV1 receptor) (Q8NER1 whole entry): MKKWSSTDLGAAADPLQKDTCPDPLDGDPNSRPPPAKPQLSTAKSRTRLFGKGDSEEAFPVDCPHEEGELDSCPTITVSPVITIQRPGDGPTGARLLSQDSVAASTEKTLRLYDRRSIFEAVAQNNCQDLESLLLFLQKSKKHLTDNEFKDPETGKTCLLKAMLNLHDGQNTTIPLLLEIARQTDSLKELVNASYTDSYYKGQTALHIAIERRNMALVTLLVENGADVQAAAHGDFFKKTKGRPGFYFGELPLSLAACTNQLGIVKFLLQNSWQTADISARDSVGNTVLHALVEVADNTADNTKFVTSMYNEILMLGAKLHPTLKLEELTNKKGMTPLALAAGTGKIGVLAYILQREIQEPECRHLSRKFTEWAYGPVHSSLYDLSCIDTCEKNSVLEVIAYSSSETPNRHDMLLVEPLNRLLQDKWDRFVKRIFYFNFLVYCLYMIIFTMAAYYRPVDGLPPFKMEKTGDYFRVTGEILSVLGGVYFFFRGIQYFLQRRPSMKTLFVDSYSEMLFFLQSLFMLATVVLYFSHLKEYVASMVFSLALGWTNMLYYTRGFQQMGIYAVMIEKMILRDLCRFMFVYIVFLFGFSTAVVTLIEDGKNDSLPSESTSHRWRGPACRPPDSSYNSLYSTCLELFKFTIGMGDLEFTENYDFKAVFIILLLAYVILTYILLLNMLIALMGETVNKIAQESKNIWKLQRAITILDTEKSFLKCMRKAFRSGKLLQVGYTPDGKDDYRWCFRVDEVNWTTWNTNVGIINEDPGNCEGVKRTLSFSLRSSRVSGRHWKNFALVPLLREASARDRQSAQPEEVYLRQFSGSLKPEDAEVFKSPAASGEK
T2 sequence (Q8NER1 whole entry): as above
T1 sequence (O35433 whole entry): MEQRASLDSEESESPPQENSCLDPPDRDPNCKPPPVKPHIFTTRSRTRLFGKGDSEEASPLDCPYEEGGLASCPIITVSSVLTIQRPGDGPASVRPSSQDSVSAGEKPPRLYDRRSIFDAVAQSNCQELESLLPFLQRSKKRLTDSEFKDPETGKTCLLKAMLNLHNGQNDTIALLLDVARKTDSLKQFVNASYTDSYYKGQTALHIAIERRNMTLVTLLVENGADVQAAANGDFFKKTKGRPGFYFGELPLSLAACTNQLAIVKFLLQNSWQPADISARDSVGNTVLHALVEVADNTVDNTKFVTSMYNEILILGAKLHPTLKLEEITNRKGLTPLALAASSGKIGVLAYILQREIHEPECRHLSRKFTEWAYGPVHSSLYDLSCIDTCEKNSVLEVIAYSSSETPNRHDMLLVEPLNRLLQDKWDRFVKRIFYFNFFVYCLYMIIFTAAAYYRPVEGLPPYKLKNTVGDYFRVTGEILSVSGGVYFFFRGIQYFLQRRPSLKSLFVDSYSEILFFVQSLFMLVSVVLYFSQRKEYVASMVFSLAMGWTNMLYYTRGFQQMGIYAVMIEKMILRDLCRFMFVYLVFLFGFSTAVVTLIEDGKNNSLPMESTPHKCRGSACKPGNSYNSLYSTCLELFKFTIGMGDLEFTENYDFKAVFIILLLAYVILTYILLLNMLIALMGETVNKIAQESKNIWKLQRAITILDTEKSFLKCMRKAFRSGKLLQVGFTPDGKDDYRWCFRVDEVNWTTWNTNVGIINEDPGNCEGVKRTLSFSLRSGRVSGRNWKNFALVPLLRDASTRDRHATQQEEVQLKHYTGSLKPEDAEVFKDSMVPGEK

- inhibition at 1 µM ([1]; compound 1 μM): 0%
- inhibition at 5 µM ([1]; compound 5 μM): 6%
- inhibition at 10 µM ([1]; compound 10 μM): 30%
- Ki [2]: 7.6 nM
- Ki [3]: 18.3 nM
SMILES: CC(C(=O)NCc1ccc(C(C)(C)C)cc1SC1CCCCC1)c1ccc(N(C)S(C)(=O)=O)c(F)c1 (centres unmarked) [Example 15, N-(4-tert.-butyl-2-(cyclohexylthio)benzyl)-2-(3-fluoro-4-(N-methylmethylsulfonamido)phenyl)propanamide]
